Here are results for five molecules from PubChem BioAssay AID1963837 (Molecular Pharmacology Branch, DTP, NCI, 2024).
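Note: spheroids exposed to drugs for seven days before readout.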

One assay deals with 843126-344-R-J1-PDC complex spheroid viability. Nature of the assay: Anticancer human tumor 843126-344-R-J1-PDC patient-derived melanoma cell line growth inhibition [POLQ]. The following applies: second compound 3.16 µM; first compound 0.1 µM; hits give low values. In outline: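 Three-cell-type spheroids modelling solid tumor plus stroma served as the readout system; POL inhibitors were tested individually and in combination, concentration ranges set by clinical Cmax where known.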
For the molecule `CCc1cc2c(N3CCc4c(cc(Cn5ccnc5)cc4-c4cn(C)nc4C(F)(F)F)C3=O)cc(C)nc2c(OC)n1` + Nc1ccc(C#CCN(C(=O)Cc2ncc(C(F)(F)F)cc2C(F)(F)F)c2ccc(F)cc2)nn1, the viability, T/C was 85.9%.

Consider `COc1cc2cc(C(=O)CCC(=O)O)sc2cc1OC` + Nc1ccc(C#CCN(C(=O)Cc2ncc(C(F)(F)F)cc2C(F)(F)F)c2ccc(F)cc2)nn1, for which the viability, T/C was 83.7%.

Consider `O=C(Nc1ccc(O)c(NS(=O)(=O)c2ccc(F)cc2)c1)c1ccc(-c2ccccc2)cc1` + Nc1ccc(C#CCN(C(=O)Cc2ncc(C(F)(F)F)cc2C(F)(F)F)c2ccc(F)cc2)nn1, for which the viability, T/C was 91.4%.

Still in this assay, the particulars now being: second compound 3.16 µM; first compound 0.316 µM; hits give low values.
As for `C#Cc1c(F)ccc2cc(O)cc(-c3ncc4c(N5CC6CCC(C5)N6)nc(OCC56CCCN5CC(F)C6)nc4c3F)c12` (stereo unspecified) + Nc1ccc(C#CCN(C(=O)Cc2ncc(C(F)(F)F)cc2C(F)(F)F)c2ccc(F)cc2)nn1, the viability, T/C was 108%.

On to `CC1COCCN1c1cc(C2(O)CC3CCC(C2)O3)c2cnn(-c3ccn[nH]3)c2n1` (stereo unspecified) + Nc1ccc(C#CCN(C(=O)Cc2ncc(C(F)(F)F)cc2C(F)(F)F)c2ccc(F)cc2)nn1, for which the viability, T/C was 46.6%.

Take `CCc1cc2c(N3CCc4c(cc(Cn5ccnc5)cc4-c4cn(C)nc4C(F)(F)F)C3=O)cc(C)nc2c(OC)n1` + Nc1ccc(C#CCN(C(=O)Cc2ncc(C(F)(F)F)cc2C(F)(F)F)c2ccc(F)cc2)nn1: the viability, T/C was 93.4%.

As for `COc1cc2cc(C(=O)CCC(=O)O)sc2cc1OC` + Nc1ccc(C#CCN(C(=O)Cc2ncc(C(F)(F)F)cc2C(F)(F)F)c2ccc(F)cc2)nn1, the viability, T/C was 89.1%.

Consider `O=C(Nc1ccc(O)c(NS(=O)(=O)c2ccc(F)cc2)c1)c1ccc(-c2ccccc2)cc1` + Nc1ccc(C#CCN(C(=O)Cc2ncc(C(F)(F)F)cc2C(F)(F)F)c2ccc(F)cc2)nn1, for which the viability, T/C was 89.5%.

The same assay, now with this note: second compound 3.16 µM; first compound 1 µM; hits give low values.
Take `C#Cc1c(F)ccc2cc(O)cc(-c3ncc4c(N5CC6CCC(C5)N6)nc(OCC56CCCN5CC(F)C6)nc4c3F)c12` (stereo unspecified) + Nc1ccc(C#CCN(C(=O)Cc2ncc(C(F)(F)F)cc2C(F)(F)F)c2ccc(F)cc2)nn1: the viability, T/C was 94.5%.

As to `CC1COCCN1c1cc(C2(O)CC3CCC(C2)O3)c2cnn(-c3ccn[nH]3)c2n1` (stereo unspecified) + Nc1ccc(C#CCN(C(=O)Cc2ncc(C(F)(F)F)cc2C(F)(F)F)c2ccc(F)cc2)nn1, the viability, T/C was 38.6%.

Take `CCc1cc2c(N3CCc4c(cc(Cn5ccnc5)cc4-c4cn(C)nc4C(F)(F)F)C3=O)cc(C)nc2c(OC)n1` + Nc1ccc(C#CCN(C(=O)Cc2ncc(C(F)(F)F)cc2C(F)(F)F)c2ccc(F)cc2)nn1: the viability, T/C was 74.8%.

For `COc1cc2cc(C(=O)CCC(=O)O)sc2cc1OC` + Nc1ccc(C#CCN(C(=O)Cc2ncc(C(F)(F)F)cc2C(F)(F)F)c2ccc(F)cc2)nn1, the viability, T/C is 86%.

As for `O=C(Nc1ccc(O)c(NS(=O)(=O)c2ccc(F)cc2)c1)c1ccc(-c2ccccc2)cc1` + Nc1ccc(C#CCN(C(=O)Cc2ncc(C(F)(F)F)cc2C(F)(F)F)c2ccc(F)cc2)nn1, the viability, T/C was 86.1%.

The same assay, now with this note: second compound 3.16 µM; first compound 3.16 µM; hits give low values.
As to `C#Cc1c(F)ccc2cc(O)cc(-c3ncc4c(N5CC6CCC(C5)N6)nc(OCC56CCCN5CC(F)C6)nc4c3F)c12` (stereo unspecified) + Nc1ccc(C#CCN(C(=O)Cc2ncc(C(F)(F)F)cc2C(F)(F)F)c2ccc(F)cc2)nn1, the viability, T/C is 97.6%.

Regarding `CC1COCCN1c1cc(C2(O)CC3CCC(C2)O3)c2cnn(-c3ccn[nH]3)c2n1` (stereo unspecified) + Nc1ccc(C#CCN(C(=O)Cc2ncc(C(F)(F)F)cc2C(F)(F)F)c2ccc(F)cc2)nn1, the viability, T/C is 29.1%.

Consider `CCc1cc2c(N3CCc4c(cc(Cn5ccnc5)cc4-c4cn(C)nc4C(F)(F)F)C3=O)cc(C)nc2c(OC)n1` + Nc1ccc(C#CCN(C(=O)Cc2ncc(C(F)(F)F)cc2C(F)(F)F)c2ccc(F)cc2)nn1, for which the viability, T/C is 66.2%.

In the case of `COc1cc2cc(C(=O)CCC(=O)O)sc2cc1OC` + Nc1ccc(C#CCN(C(=O)Cc2ncc(C(F)(F)F)cc2C(F)(F)F)c2ccc(F)cc2)nn1, the viability, T/C is 94.7%.

As for `O=C(Nc1ccc(O)c(NS(=O)(=O)c2ccc(F)cc2)c1)c1ccc(-c2ccccc2)cc1` + Nc1ccc(C#CCN(C(=O)Cc2ncc(C(F)(F)F)cc2C(F)(F)F)c2ccc(F)cc2)nn1, the viability, T/C was 78.8%.

The same assay, now with this note: second compound 3.16 µM; first compound 10 µM; hits give low values.
For `C#Cc1c(F)ccc2cc(O)cc(-c3ncc4c(N5CC6CCC(C5)N6)nc(OCC56CCCN5CC(F)C6)nc4c3F)c12` (stereo unspecified) + Nc1ccc(C#CCN(C(=O)Cc2ncc(C(F)(F)F)cc2C(F)(F)F)c2ccc(F)cc2)nn1, the viability, T/C is 82.6%.

As to `CC1COCCN1c1cc(C2(O)CC3CCC(C2)O3)c2cnn(-c3ccn[nH]3)c2n1` (stereo unspecified) + Nc1ccc(C#CCN(C(=O)Cc2ncc(C(F)(F)F)cc2C(F)(F)F)c2ccc(F)cc2)nn1, the viability, T/C was 19.6%.

On to `CCc1cc2c(N3CCc4c(cc(Cn5ccnc5)cc4-c4cn(C)nc4C(F)(F)F)C3=O)cc(C)nc2c(OC)n1` + Nc1ccc(C#CCN(C(=O)Cc2ncc(C(F)(F)F)cc2C(F)(F)F)c2ccc(F)cc2)nn1, for which the viability, T/C was 64%.

For `COc1cc2cc(C(=O)CCC(=O)O)sc2cc1OC` + Nc1ccc(C#CCN(C(=O)Cc2ncc(C(F)(F)F)cc2C(F)(F)F)c2ccc(F)cc2)nn1, the viability, T/C is 91%.

Consider `O=C(Nc1ccc(O)c(NS(=O)(=O)c2ccc(F)cc2)c1)c1ccc(-c2ccccc2)cc1` + Nc1ccc(C#CCN(C(=O)Cc2ncc(C(F)(F)F)cc2C(F)(F)F)c2ccc(F)cc2)nn1, for which the viability, T/C was 67.3%.

Staying with this assay, now noted: second compound 10 µM; first compound 0.0316 µM; hits give low values.
On to `C#Cc1c(F)ccc2cc(O)cc(-c3ncc4c(N5CC6CCC(C5)N6)nc(OCC56CCCN5CC(F)C6)nc4c3F)c12` (stereo unspecified) + Nc1ccc(C#CCN(C(=O)Cc2ncc(C(F)(F)F)cc2C(F)(F)F)c2ccc(F)cc2)nn1, for which the viability, T/C was 95.3%.

For `CC1COCCN1c1cc(C2(O)CC3CCC(C2)O3)c2cnn(-c3ccn[nH]3)c2n1` (stereo unspecified) + Nc1ccc(C#CCN(C(=O)Cc2ncc(C(F)(F)F)cc2C(F)(F)F)c2ccc(F)cc2)nn1, the viability, T/C is 71.5%.

`CCc1cc2c(N3CCc4c(cc(Cn5ccnc5)cc4-c4cn(C)nc4C(F)(F)F)C3=O)cc(C)nc2c(OC)n1` + Nc1ccc(C#CCN(C(=O)Cc2ncc(C(F)(F)F)cc2C(F)(F)F)c2ccc(F)cc2)nn1: the viability, T/C was 83.3%.
